Measured values published in ChEMBL document CHEMBL3232710, “Pyrroloquinolinone-based dual topoisomerase I/II inhibitor” (2014).
Calls of active or inactive are those of the source. No cut-off for these calls is given here.

Assays:
HeLa [1] = experiment: Growth inhibition of human HeLa cells after 72 hrs by trypan blue assay; type: functional
HL-60 = experiment: Growth inhibition of human HL60 cells after 72 hrs by trypan blue assay; type: functional; conditions: HL-60, 72 h
A-431 = experiment: Growth inhibition of human A431 cells after 72 hrs by trypan blue assay; type: functional; conditions: A-431, 72 h
Nucleic Acid = experiment: Binding affinity to salmon testes DNA assessed as intercalation at compound to DNA ratio of 0.04 by linear dichroism analysis; type: nucleic-acid assay; conditions: Salmonidae
[2] = molecular target: DNA topoisomerase 2-alpha (Homo sapiens) (UniProt P11388); experiment: Inhibition of human recombinant topoisomerase 2-alpha-mediated pBR322 DNA relaxation at 50 uM after 60 mins by agarose gel electrophoresis
[3] = molecular target: DNA topoisomerase 2-alpha (Homo sapiens) (UniProt P11388); experiment: Inhibition of human recombinant topoisomerase 2-alpha-mediated pBR322 DNA relaxation at 20 uM after 60 mins by agarose gel electrophoresis
[4] = molecular target: DNA topoisomerase 2-alpha (Homo sapiens) (UniProt P11388); experiment: Inhibition of human recombinant topoisomerase 2-alpha-mediated pBR322 DNA cleavage at 100 uM after 60 mins by agarose gel electrophoresis
Bos taurus = organism: Bos taurus; experiment: Inhibition of calf thymus topoisomerase-1-mediated pBR322 DNA relaxation after 60 mins by agarose gel electrophoresis
HeLa [5] = experiment: Induction of apoptosis in human HeLa cells assessed as DNA fragmentation at 100 uM after 24 hrs by agarose gel electrophoresis; type: functional, cell-based

Sequence of DNA topoisomerase 2-alpha (Homo sapiens) (P11388 whole entry): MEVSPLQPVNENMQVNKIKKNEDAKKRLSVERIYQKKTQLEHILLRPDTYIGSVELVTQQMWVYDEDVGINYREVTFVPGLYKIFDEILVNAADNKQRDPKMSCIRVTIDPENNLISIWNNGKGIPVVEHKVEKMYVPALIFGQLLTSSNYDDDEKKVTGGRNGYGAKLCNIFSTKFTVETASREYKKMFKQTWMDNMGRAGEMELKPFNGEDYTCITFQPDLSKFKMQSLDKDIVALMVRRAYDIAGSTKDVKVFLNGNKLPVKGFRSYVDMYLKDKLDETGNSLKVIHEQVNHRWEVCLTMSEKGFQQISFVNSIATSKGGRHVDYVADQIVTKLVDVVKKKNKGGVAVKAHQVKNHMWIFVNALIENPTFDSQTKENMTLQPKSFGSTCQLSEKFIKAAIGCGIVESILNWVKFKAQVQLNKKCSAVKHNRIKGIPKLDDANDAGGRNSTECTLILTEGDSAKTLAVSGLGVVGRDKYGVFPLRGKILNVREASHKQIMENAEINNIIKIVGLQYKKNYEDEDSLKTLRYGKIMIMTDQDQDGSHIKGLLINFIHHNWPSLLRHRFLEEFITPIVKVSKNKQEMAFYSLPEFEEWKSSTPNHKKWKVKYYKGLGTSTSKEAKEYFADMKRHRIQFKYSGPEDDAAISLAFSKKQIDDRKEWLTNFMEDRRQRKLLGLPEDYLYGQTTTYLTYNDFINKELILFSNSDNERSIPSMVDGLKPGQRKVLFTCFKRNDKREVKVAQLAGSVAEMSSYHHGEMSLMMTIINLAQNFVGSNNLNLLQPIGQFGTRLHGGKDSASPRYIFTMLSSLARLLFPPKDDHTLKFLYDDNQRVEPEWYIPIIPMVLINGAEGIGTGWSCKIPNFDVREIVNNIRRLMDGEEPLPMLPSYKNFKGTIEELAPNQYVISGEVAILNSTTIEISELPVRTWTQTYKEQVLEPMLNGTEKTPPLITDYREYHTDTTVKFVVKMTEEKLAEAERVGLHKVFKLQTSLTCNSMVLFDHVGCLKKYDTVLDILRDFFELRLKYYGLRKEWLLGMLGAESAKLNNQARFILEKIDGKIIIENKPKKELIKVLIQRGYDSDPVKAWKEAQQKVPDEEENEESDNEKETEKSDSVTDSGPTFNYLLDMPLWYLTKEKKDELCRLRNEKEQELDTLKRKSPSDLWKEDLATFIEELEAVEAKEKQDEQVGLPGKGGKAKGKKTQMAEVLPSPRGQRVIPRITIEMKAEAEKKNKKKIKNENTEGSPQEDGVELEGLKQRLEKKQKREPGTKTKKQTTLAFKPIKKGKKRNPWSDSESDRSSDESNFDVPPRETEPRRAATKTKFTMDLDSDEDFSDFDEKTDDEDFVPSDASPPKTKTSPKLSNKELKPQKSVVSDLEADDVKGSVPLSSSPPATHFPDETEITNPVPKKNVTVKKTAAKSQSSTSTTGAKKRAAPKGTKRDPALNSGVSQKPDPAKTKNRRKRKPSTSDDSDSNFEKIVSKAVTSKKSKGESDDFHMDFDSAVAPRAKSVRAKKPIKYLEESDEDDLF

SMILES	GI50 (HeLa [1])	GI50 (HL-60)	GI50 (A-431)	Activity (Nucleic Acid)	inhibition [2]	inhibition [3]	inhibition [4]	inhibition (Bos taurus)	Activity (HeLa [5])
Cc1c2ccncc2c(C)c2c1[nH]c1ccccc12 [ELLIPTECINE]	0.3 µM	2 µM	3.2 µM						
Cc1cc(=O)n2c(C)cc3c(OCCNCCN(C)C)ccc1c32	> 50 µM	25.7 µM	7.5 µM	Active	Active				
Cc1cc(=O)n2c(C)cc3c(OCCCCNCCN(C)C)ccc1c32	19.7 µM	8.3 µM	13.6 µM	Active	Active	inactive	Active	Dose-dependent effect	Active

Now from value to compound, other results behind:

GI50 (HeLa [1])	GI50 (HL-60)	GI50 (A-431)	Activity (Nucleic Acid)	inhibition [2]	inhibition [3]	inhibition [4]	inhibition (Bos taurus)	SMILES	Activity (HeLa [5])
	> 50 µM	14.5 µM	Active	inactive				Cc1cc(=O)n2c(C)cc3c(OCCCNCCN(C)C)ccc1c32	
> 50 µM	> 50 µM	41.3 µM	Active	inactive	inactive			Cc1cc(=O)n2c(C)cc3c(OCCCCN(C)C)ccc1c32	
